Measured values taken from publication PMC4178217, “Quinoline 3-sulfonamides inhibit lactate dehydrogenase A and reverse aerobic glycolysis in cancer cells” (Cancer & Metabolism, 2013).
Read-outs that look alike come from different tables or passages of the source.

Experiments:
Cyclooxygenase 2 = Cyclooxygenase 2 (Homo sapiens, UniProt P35354); assay: Cyclooxygenase 2 ANT; format: biochemical; settings: antagonist; read-out: pIC50 Cyclooxygenase 2 ANT (converted)
Excerpt: (§1) ANT = antagonist (pIC50), AG = agonist (pEC50). pIC50 and pEC50 are the negative logarithms10 of IC50 and EC50, respectively. Click here for file

Serotonin Receptor 5H1 = Serotonin Receptor 5H1 ANT; settings: antagonist
Excerpt: as §1

Muscarinic Receptor M1 [1] = molecular target: T1, Muscarinic Receptor M1 (Homo sapiens, UniProt P11229); assay: Muscarinic Receptor M1 ANT; settings: antagonist; read-out: pIC50 Muscarinic Receptor M1 ANT (converted)
T1 sequence (P11229 1-460): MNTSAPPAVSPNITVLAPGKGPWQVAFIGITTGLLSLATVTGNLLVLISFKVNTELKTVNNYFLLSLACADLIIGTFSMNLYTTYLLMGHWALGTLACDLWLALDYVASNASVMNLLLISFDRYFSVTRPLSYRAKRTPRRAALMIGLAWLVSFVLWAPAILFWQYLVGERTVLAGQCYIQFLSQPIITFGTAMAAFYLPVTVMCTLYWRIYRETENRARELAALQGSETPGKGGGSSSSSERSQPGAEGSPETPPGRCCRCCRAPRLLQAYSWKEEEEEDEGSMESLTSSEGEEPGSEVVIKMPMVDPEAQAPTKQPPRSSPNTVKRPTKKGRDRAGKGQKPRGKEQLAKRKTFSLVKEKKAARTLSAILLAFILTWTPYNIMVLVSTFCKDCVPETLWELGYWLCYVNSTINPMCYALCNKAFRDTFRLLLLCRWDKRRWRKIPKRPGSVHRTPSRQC
Excerpt: as §1

Adrenergic Receptor a1B = Adrenergic Receptor a1B (Homo sapiens, UniProt P35368); assay: Adrenergic Receptor a1B ANT
Adrenergic Receptor a1B, sequence (P35368 whole entry): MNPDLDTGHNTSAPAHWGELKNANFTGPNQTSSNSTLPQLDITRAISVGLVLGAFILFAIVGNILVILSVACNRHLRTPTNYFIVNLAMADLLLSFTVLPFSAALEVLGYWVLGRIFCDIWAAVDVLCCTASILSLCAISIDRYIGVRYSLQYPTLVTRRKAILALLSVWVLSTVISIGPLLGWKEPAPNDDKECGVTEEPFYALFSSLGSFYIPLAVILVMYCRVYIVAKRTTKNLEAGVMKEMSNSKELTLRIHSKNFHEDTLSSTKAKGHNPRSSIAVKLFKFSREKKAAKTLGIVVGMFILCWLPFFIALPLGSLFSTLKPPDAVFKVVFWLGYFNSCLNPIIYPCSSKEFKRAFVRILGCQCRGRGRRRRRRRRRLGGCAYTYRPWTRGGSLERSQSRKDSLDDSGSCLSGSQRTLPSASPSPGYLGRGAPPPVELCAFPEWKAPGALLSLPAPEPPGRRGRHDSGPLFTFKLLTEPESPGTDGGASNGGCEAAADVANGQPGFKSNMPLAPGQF
Excerpt: as §1

[2] = molecular target: Lymphocyte-specific Tyrosine Kinase (Homo sapiens, UniProt P06239); assay: Lymphocyte-specific Tyrosine Kinase ANT; format: biochemical; settings: antagonist; read-out: pIC50 Lymphocyte-specific Tyrosine Kinase ANT (converted)
Lymphocyte-specific Tyrosine Kinase, sequence (P06239 whole entry): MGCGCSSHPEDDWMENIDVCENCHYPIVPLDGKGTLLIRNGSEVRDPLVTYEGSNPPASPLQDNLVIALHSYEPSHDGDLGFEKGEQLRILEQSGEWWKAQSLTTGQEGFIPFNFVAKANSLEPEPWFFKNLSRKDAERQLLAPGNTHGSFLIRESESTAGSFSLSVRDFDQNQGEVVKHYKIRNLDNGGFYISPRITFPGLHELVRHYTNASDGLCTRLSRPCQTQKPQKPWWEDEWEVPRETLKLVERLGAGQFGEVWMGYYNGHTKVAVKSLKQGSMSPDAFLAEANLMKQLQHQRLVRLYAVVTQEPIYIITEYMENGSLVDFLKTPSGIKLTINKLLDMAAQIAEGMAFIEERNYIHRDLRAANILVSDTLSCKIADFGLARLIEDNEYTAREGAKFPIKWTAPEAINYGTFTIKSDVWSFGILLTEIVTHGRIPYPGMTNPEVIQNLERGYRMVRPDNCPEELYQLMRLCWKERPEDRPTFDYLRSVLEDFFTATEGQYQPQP
Excerpt: as §1

Adrenergic Receptor b2 = Adrenergic Receptor b2 (Homo sapiens, UniProt P07550); assay: Adrenergic Receptor b2 AG; settings: agonist; read-out: pEC50 Adrenergic Receptor b2 AG (converted)
Excerpt: as §1

Adenosine Receptor a2A = Adenosine Receptor a2A (Homo sapiens, UniProt P29274); assay: Adenosine Receptor a2A ANT; settings: antagonist; read-out: pIC50 Adenosine Receptor a2A ANT (converted)
Adenosine Receptor a2A, sequence (P29274 whole entry, species assumed): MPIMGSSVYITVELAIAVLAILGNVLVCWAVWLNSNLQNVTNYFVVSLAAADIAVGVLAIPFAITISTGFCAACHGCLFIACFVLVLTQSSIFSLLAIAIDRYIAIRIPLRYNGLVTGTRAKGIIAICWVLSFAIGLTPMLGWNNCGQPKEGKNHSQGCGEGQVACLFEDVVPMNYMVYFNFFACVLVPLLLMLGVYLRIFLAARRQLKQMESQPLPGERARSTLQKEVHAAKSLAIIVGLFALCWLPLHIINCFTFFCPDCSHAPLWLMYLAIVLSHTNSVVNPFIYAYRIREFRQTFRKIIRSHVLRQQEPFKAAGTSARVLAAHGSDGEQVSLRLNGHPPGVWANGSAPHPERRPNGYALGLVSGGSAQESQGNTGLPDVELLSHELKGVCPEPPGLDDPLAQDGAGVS
Excerpt: as §1

Serotonin Receptor 5HT2C [3] = molecular target: T2, Serotonin Receptor 5HT2C (Homo sapiens, UniProt P28335); assay: Serotonin Receptor 5HT2C ANT; settings: antagonist; read-out: pIC50 Serotonin Receptor 5HT2C ANT (converted)
T2 sequence (P28335 33-458): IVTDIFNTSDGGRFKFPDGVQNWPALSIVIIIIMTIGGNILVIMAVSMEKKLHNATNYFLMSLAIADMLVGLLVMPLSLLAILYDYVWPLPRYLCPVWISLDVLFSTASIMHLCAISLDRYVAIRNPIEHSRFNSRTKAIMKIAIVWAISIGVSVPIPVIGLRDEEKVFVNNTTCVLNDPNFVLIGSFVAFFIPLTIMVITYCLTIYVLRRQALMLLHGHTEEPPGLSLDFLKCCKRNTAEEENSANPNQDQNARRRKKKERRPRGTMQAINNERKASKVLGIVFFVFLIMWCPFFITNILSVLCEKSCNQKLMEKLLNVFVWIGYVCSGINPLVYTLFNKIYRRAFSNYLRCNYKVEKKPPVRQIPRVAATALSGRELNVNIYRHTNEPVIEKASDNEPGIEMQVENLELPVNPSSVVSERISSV
Excerpt: as §1

Serotonin Receptor 5HT2A [4] = molecular target: T3, Serotonin Receptor 5HT2A (Homo sapiens, UniProt P28223); assay: Serotonin Receptor 5HT2A AG; settings: agonist; read-out: pEC50 Serotonin Receptor 5HT2A AG (converted)
T3 sequence (P28223 whole entry): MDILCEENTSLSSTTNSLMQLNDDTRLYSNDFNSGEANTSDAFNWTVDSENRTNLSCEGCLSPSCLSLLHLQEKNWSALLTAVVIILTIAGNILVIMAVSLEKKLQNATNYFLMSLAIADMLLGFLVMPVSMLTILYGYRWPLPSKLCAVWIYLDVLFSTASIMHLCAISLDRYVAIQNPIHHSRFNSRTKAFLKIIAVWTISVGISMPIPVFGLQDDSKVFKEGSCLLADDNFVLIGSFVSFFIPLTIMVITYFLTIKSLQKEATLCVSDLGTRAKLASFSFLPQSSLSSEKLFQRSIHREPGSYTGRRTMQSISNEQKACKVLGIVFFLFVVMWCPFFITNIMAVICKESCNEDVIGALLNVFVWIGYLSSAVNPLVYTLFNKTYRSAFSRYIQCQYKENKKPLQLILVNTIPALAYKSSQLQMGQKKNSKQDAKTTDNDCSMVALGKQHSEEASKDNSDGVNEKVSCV
Excerpt: as §1

[5] = molecular target: Nicotinic Ach Receptor A1 (Homo sapiens, UniProt P02708+P07510+Q07001); assay: Nicotinic Ach Receptor A1 ANT
Nicotinic Ach Receptor A1, sequence (P02708 21-457): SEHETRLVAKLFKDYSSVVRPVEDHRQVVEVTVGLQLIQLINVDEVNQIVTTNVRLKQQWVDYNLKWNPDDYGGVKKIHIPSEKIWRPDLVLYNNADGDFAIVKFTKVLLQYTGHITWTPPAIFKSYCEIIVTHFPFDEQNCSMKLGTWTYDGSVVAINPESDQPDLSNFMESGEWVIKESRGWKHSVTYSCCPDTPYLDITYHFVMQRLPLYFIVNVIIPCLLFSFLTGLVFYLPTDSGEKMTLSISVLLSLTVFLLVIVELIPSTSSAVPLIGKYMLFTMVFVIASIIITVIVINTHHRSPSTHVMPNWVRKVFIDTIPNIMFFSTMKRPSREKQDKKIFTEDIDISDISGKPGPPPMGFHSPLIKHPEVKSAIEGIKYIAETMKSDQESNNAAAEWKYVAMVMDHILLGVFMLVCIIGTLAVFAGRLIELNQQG
Nicotinic Ach Receptor A1, sequence (P11230 24-501 partner): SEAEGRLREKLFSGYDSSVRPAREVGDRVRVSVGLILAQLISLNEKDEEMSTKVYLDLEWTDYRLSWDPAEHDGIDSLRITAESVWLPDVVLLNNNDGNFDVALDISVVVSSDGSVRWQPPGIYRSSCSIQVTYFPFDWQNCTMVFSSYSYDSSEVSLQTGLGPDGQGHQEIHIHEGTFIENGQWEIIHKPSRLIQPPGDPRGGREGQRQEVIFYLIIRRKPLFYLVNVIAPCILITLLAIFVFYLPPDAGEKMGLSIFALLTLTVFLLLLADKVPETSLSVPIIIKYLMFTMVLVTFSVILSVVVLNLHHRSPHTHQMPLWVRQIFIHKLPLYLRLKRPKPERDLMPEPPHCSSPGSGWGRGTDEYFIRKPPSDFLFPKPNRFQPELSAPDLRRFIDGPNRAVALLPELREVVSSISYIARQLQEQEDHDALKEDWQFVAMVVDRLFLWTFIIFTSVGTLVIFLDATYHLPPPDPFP
Nicotinic Ach Receptor A1, sequence (Q07001 22-517): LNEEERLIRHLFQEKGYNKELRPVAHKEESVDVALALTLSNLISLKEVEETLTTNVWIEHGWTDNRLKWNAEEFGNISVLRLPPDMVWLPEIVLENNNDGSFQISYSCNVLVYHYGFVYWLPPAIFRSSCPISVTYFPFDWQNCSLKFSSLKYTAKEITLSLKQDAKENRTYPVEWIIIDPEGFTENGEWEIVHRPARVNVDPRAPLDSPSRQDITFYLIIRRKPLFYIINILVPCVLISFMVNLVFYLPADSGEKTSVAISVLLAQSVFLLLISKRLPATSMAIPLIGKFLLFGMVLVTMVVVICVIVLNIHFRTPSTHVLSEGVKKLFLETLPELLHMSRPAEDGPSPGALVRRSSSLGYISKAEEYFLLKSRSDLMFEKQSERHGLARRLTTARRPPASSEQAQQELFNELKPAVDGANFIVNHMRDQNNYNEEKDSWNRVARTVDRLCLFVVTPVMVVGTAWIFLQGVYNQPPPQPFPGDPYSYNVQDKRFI
Nicotinic Ach Receptor A1, sequence (P07510 23-517): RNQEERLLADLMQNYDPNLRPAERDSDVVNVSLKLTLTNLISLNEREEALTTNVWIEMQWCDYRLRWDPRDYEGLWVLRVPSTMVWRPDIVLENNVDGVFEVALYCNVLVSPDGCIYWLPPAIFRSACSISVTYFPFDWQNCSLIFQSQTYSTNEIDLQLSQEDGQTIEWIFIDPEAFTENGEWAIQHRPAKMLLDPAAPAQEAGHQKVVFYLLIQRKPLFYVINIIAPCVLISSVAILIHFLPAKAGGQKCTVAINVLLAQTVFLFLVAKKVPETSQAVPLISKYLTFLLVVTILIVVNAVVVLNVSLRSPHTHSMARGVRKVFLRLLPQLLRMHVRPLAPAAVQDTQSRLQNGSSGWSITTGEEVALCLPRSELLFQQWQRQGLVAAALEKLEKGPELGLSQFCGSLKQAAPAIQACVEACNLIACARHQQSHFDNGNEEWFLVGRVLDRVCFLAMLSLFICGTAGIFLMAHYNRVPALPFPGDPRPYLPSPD
Excerpt: as §1

Monoamine Oxidase B = Monoamine Oxidase B (Homo sapiens, UniProt P27338); assay: Monoamine Oxidase B ANT; format: biochemical; settings: antagonist; read-out: pIC50 Monoamine Oxidase B ANT (converted)
Monoamine Oxidase B, sequence (P27338 whole entry): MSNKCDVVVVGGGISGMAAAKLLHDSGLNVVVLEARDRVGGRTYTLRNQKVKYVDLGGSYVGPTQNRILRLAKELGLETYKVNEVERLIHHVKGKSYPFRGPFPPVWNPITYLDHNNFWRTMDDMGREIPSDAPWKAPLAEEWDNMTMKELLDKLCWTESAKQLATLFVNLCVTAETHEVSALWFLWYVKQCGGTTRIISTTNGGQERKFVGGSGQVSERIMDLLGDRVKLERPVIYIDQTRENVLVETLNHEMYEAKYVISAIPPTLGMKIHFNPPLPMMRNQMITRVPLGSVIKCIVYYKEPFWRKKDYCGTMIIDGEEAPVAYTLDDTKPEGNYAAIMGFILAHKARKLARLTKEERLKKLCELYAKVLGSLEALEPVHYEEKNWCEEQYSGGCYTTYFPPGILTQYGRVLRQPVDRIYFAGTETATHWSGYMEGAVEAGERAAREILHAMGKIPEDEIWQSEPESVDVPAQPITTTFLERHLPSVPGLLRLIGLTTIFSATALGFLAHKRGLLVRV
Excerpt: as §1

Serotonin Receptor 5HT2A [6] = molecular target: T3, Serotonin Receptor 5HT2A; assay: Serotonin Receptor 5HT2A ANT; settings: antagonist; read-out: pIC50 Serotonin Receptor 5HT2A ANT (converted)
Excerpt: as §1

Serotonin Receptor 5HT2C [7] = molecular target: T2, Serotonin Receptor 5HT2C; assay: Serotonin Receptor 5HT2C AG; settings: agonist; read-out: pEC50 Serotonin Receptor 5HT2C AG (converted)
Excerpt: as §1

Muscarinic Receptor M2 = molecular target: T4, Muscarinic Receptor M2 (Homo sapiens, UniProt P08172); assay: Muscarinic Receptor M2 ANT; settings: antagonist; read-out: pIC50 Muscarinic Receptor M2 ANT (converted)
T4 sequence (P08172 1-466): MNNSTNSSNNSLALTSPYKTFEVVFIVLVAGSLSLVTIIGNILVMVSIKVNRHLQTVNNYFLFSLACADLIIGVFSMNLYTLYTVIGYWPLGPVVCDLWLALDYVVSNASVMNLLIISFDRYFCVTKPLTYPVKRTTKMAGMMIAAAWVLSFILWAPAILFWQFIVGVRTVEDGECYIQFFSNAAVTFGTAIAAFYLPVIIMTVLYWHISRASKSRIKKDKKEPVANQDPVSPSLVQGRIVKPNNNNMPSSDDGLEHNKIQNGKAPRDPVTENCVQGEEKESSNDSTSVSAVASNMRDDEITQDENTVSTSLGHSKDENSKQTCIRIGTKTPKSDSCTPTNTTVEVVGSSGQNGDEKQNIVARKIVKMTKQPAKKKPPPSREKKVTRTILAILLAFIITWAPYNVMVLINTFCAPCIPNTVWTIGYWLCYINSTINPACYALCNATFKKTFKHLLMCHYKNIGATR
Excerpt: as §1

Potassium Channel KCNQ1 = Potassium Channel KCNQ1 (Homo sapiens, UniProt P51787); assay: Potassium Channel KCNQ1 ANT; settings: antagonist; read-out: pIC50 Potassium Channel KCNQ1 ANT (converted)
Excerpt: as §1

Muscarinic Receptor M1 [8] = molecular target: T1, Muscarinic Receptor M1; assay: Muscarinic Receptor M1 AG; settings: agonist; read-out: pEC50 Muscarinic Receptor M1 AG (converted)
Excerpt: as §1

Dopamin Receptor D2 = Dopamin Receptor D2 (Homo sapiens, UniProt P14416); assay: Dopamin Receptor D2 AG; settings: agonist; read-out: pEC50 Dopamin Receptor D2 AG (converted)
Dopamin Receptor D2, sequence (P14416 whole entry): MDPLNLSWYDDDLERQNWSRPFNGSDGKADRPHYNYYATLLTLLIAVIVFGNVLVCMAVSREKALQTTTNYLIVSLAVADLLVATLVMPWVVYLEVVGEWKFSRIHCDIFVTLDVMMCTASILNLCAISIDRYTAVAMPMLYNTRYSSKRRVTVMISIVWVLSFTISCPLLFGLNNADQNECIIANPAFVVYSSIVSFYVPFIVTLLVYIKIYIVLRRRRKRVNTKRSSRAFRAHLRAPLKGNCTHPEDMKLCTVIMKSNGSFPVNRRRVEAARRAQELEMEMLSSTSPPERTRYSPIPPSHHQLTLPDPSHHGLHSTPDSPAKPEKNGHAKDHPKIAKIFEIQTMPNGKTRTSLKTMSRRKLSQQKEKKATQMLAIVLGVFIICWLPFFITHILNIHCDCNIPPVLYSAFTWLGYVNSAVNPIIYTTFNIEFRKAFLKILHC
Excerpt: as §1

Row | Structure (SMILES) | IC50 (Cyclooxygenase 2) | pIC50 Serotonin Receptor 5H1 ANT (Serotonin Receptor 5H1) | IC50 (Muscarinic Receptor M1 [1]) | IC50 (Adrenergic Receptor a1B) | IC50 [2] | EC50 (Adrenergic Receptor b2) | IC50 (Adenosine Receptor a2A) | IC50 (Serotonin Receptor 5HT2C [3]) | EC50 (Serotonin Receptor 5HT2A [4]) | IC50 [5] | IC50 (Monoamine Oxidase B) | IC50 (Serotonin Receptor 5HT2A [6]) | EC50 (Serotonin Receptor 5HT2C [7]) | IC50 (Muscarinic Receptor M2) | IC50 (Potassium Channel KCNQ1) | EC50 (Muscarinic Receptor M1 [8]) | EC50 (Dopamin Receptor D2) | IC50 (Adrenergic Receptor a1B; antagonist, read-out: pIC50 Adrenergic Receptor a1B ANT (converted)) | IC50 ([5]; antagonist, read-out: pIC50 Nicotinic Ach Receptor A1 ANT (converted))
1 | COc1ncc(-c2ccc3c(Nc4cc(Oc5cc(F)cc(F)c5)cc(C(=O)O)c4)c(S(=O)(=O)NC4CC4)cnc3c2)c(OC)n1 [Compound 1] | 100 µM | 4.7 | 15.8 µM | 12.6 µM | 31.6 µM | 31.6 µM | 31.6 µM | 39.8 µM | 39.8 µM | 50.1 µM | 6.31 µM | 39.8 µM | 39.8 µM | 15.8 µM | 25.1 µM | 15.8 µM | 100 µM | – | –
2 | COc1ncc(-c2ccc3c(Nc4cc(C(=O)O)cc(C5CCCC5)c4)c(S(=O)(=O)NC4CC4)cnc3c2)c(OC)n1 [Compound 2] | 63.1 µM | 4.4 | 15.8 µM | – | 31.6 µM | 31.6 µM | 31.6 µM | 39.8 µM | 39.8 µM | – | 15.8 µM | 31.6 µM | 39.8 µM | 15.8 µM | 25.1 µM | 15.8 µM | 100 µM | 31.6 µM | 15.8 µM
